The subject of the assay is syngeneic C57BL/6 mice. The experiment in a line: Syngeneic mouse model of endometriosis: mechanical allodynia by von Frey pain stimulation procedure. Type of assay: in vivo. The settings on record: 30 mg/kg i.p., day 4 and 5, measured one hour following treatment; p<0.05; FIG. 1A. As for the experimental part: A P2X3 receptor antagonist compound of Formula (I) described herein was evaluated in the syngeneic mouse model of endometriosis.
C57BL/6 mice (8 weeks old) were anesthetized before making a vertical incision on the abdomen. The uterus was collected and divided into pieces of 5 millimeters which were then surgically sutured onto the peritoneum of syngeneic recipient animals. The recipient mice were also treated with oestradiol and the resulting lesions were allowed to develop for 11 weeks.
Baseline measurements were established on Day 0 by measuring mechanical allodynia in all transplanted mice using a von Frey pain stimulation procedure in accordance with the protocol described below. On Day 1 transplanted mice were injected with saline (i.p.) and mechanical allodynia was again measured using the von Frey filament method (control). […] Mechanical allodynia was evaluated using the von Frey pain stimulation procedure. […] The mice were euthanized on Day 6 and evaluated for the presence of endometriotic lesions.
Animals were placed in small cages with a mesh or otherwise penetrable bottom. The pain threshold was evaluated with von Frey filaments using the simplified up-down method, which determines the mechanical force required to elicit a positive pain response in animals. […]

Take `CNC(=O)c1cc(F)c(-c2nc3cc(C)ccn3c2C[C@H]2CN(C(=O)OC)CCO2)c(F)c1` [Compound 1]: the “stimulus threshold (von Frey test; pressure stimulus required to elicit behavioral response, change from baseline Day 0)” value was “greater stimulus threshold”.

Source of the values: patent publication US12485125B2, “Treatment with P2X3 modulators” (GlaxoSmithKline Intellectual Property (No. 3) Limited, priority 2019, dated 2025).
